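Protocol summary: plate cells (96-well), add compound at 5 concentrations, incubate 48 h, interpolate endpoints linearly. GI50 = concentration required for 50% inhibition of growth. TGI is the concentration that stops growth completely.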
Columns and labels:
Assay in all cases: NCI anticancer screen, dose series, 48 h
[1] = system: 786-0 renal
[2] = system: A498 renal
[3] = system: A549 NSCLC
[4] = system: ACHN renal
[5] = system: BT-549 breast
[6] = system: CAKI-1 renal
[7] = system: CCRF-CEM leukemia
[8] = system: COLO 205 colon
[9] = system: DU-145 prostate
[10] = system: EKVX NSCLC
[11] = system: HCC-2998 colon
[12] = system: HCT-116 colon
[13] = system: HCT-15 colon
[14] = system: HL-60(TB) leukemia
[15] = system: HOP-62 NSCLC
[16] = system: HOP-92 NSCLC
[17] = system: HS 578T breast
[18] = system: HT29 colon
[19] = system: IGROV1 ovarian
[20] = system: K-562 leukemia
[21] = system: KM12 colon
[22] = system: LOX IMVI melanoma
[23] = system: M14 melanoma
[24] = system: MALME-3M melanoma
[25] = system: MCF7 breast
[26] = system: MDA-MB-231 breast
[27] = system: MDA-MB-435
[28] = system: MOLT-4 leukemia
[29] = system: NCI-H226 lung
[30] = system: NCI-H23 lung
[31] = system: NCI-H460 lung
[32] = system: NCI-H522 lung
[33] = system: NCI/ADR-RES ovarian
[34] = system: OVCAR-3 ovarian
[35] = system: OVCAR-4 ovarian
[36] = system: OVCAR-5 ovarian
[37] = system: OVCAR-8 ovarian
[38] = system: PC-3 prostate
[39] = system: RPMI-8226 leukemia
[40] = system: RXF 393 renal
[41] = system: SF-268 CNS
[42] = system: SF-295 CNS
[43] = system: SF-539 CNS
[44] = system: SK-MEL-2 melanoma
[45] = system: SK-MEL-28 melanoma
[46] = system: SK-MEL-5 melanoma
[47] = system: SK-OV-3 ovarian
[48] = system: SN12C renal
[49] = system: SNB-19 CNS
[50] = system: SNB-75 CNS
[51] = system: SR leukemia
[52] = system: SW-620 colon
[53] = system: T-47D breast
[54] = system: TK-10 renal
[55] = system: U251 CNS
[56] = system: UACC-257 melanoma
[57] = system: UACC-62 melanoma
[58] = system: UO-31 renal

## Cc1oc2c(C(=O)N/N=C\c3ccc(O)cc3O)c[nH]c2c1C
[1]
  GI50: 0.464 µM
  TGI: 7.49 µM
[2]
  GI50: 6.62 µM
  TGI: 39.3 µM
[3]
  GI50: 0.518 µM
  TGI: 13.2 µM
[4]
  GI50: 0.339 µM
  TGI: 13.7 µM
[5]
  GI50: 2.05 µM
  TGI: > 54.6 µM
[6]
  GI50: 0.739 µM
  TGI: 26.7 µM
[7]
  GI50: 0.19 µM
  TGI: > 100 µM
[8]
  GI50: 0.29 µM
[9]
  GI50: 1.32 µM
  TGI: > 41.1 µM
[10]
  GI50: 0.46 µM
  TGI: > 54.2 µM
[11]
  GI50: 0.876 µM
  TGI: > 50.6 µM
[12]
  GI50: 0.424 µM
  TGI: 32.5 µM
[13]
  GI50: 0.175 µM
  TGI: > 100 µM
[14]
  GI50: 0.337 µM
[15]
  GI50: 0.754 µM
  TGI: 26.3 µM
[16]
  GI50: 0.541 µM
  TGI: 9.21 µM
[17]
  GI50: 6.71 µM
  TGI: > 60.7 µM
[18]
  GI50: 2.85 µM
  TGI: > 48.2 µM
[19]
  GI50: 0.593 µM
  TGI: 44.5 µM
[20]
  GI50: 1.14 µM
  TGI: > 100 µM
[21]
  GI50: 1.1 µM
  TGI: > 73.4 µM
[22]
  GI50: 0.409 µM
  TGI: 10.6 µM
[23]
  GI50: 0.756 µM
  TGI: 17.3 µM
[24]
  GI50: 2.23 µM
  TGI: 25.3 µM
[25]
  GI50: 0.521 µM
  TGI: > 33.6 µM
[26]
  GI50: 8.13 µM
  TGI: > 45.9 µM
[27]
  GI50: 4.52 µM
  TGI: > 100 µM
[28]
  GI50: 0.44 µM
  TGI: > 100 µM
[29]
  GI50: 4.14 µM
  TGI: 24.3 µM
[30]
  GI50: 1.49 µM
  TGI: 24.3 µM
[31]
  GI50: 0.347 µM
  TGI: 7.28 µM
[32]
  GI50: 0.704 µM
  TGI: 63.9 µM
[33]
  GI50: 0.295 µM
  TGI: 23.3 µM
[34]
  GI50: 0.368 µM
  TGI: > 39.4 µM
[35]
  GI50: 0.414 µM
  TGI: > 47.1 µM
[36]
  GI50: 3.89 µM
  TGI: > 45.2 µM
[37]
  GI50: 0.664 µM
  TGI: 39.7 µM
[38]
  GI50: 0.579 µM
  TGI: > 45.6 µM
[39]
  GI50: 0.445 µM
  TGI: 17.4 µM
[40]
  GI50: 0.58 µM
  TGI: 16.7 µM
[41]
  GI50: 0.662 µM
  TGI: > 44.4 µM
[42]
  GI50: 0.435 µM
  TGI: 29.6 µM
[43]
  GI50: 0.84 µM
  TGI: 12.5 µM
[44]
  GI50: 10.4 µM
  TGI: > 100 µM
[45]
  GI50: 2.12 µM
  TGI: > 41.7 µM
[46]
  GI50: 1.02 µM
  TGI: 15.7 µM
[47]
  GI50: 0.68 µM
  TGI: 17.4 µM
[48]
  GI50: 2.54 µM
  TGI: > 48.4 µM
[49]
  GI50: 1.32 µM
  TGI: > 42 µM
[50]
  GI50: 3.57 µM
  TGI: > 39.6 µM
[51]
  GI50: 4.47 µM
  TGI: > 100 µM
[52]
  GI50: 0.801 µM
  TGI: > 37 µM
[53]
  GI50: 1.79 µM
  TGI: > 43.2 µM
[54]
  GI50: 1.03 µM
  TGI: > 64.8 µM
[55]
  GI50: 0.57 µM
  TGI: 15.4 µM
[56]
  GI50: 0.644 µM
  TGI: 3.08 µM
[57]
  GI50: 0.665 µM
  TGI: 8.32 µM
[58]
  GI50: 0.208 µM
  TGI: 13.9 µM
